According to PubChem BioAssay AID1996:
Values after ≈ are worked out from the molar mass of the structure shown.

Conditions: buffer; pH 7.4; 200.0 µM

| SMILES | solubility kinetic [µg/mL] |
| --- | --- |
| CC(C)CNC(=O)C(=O)Nc1cc2c3c(c1)C(C)C(=O)N3CCC2 (stereo not given) | 42.7 (≈ 130 µM) |
| O=C(NC1CCSc2ccccc21)c1ccccc1Br (stereo not given) | 8.6 (≈ 24.7 µM) |
| Cc1cc(-c2ccccc2)nc(SC(C(=O)O)c2ccccc2)n1 (stereo not given) | 48.1 (≈ 143 µM) |
| O=C(COC(=O)c1ccc(O)cc1)Nc1ncc(Cl)cc1Cl | 31.5 (≈ 92.3 µM) |
| O=C(CSc1ncnc2ccccc12)Nc1ccc2c(c1)OCCO2 | 1.3 (≈ 3.68 µM) |
| CC12CCC(=O)N1C(C(=O)Nc1ccccc1F)CS2 (stereo not given) | > 44.2 |
| COC1C(C)=C(C)C(=O)N1Cc1ccc(F)cc1 (stereo not given) | 31.9 (≈ 128 µM) |
| O=[N+]([O-])c1cc(C(F)(F)F)cc([N+](=O)[O-])c1N1CCCNCC1 | 37.9 (≈ 113 µM) |
| O=c1cc(C(F)(F)F)nc(SCc2cccc3ccccc23)[nH]1 | 7.5 (≈ 22.3 µM) |
| COc1ccc(CCNC(=O)C2C3CCC(C3)C2C(=O)O)cc1OC (stereo not given) | 43.7 (≈ 126 µM) |
| CCN(c1ccccc1)S(=O)(=O)c1ccc(C(=O)Nc2cccc(NC(C)=O)c2)cc1 | 3.7 (≈ 8.46 µM) |
| COc1cccc2c(O)c(-c3ccccc3)c(=O)[nH]c12 | > 40.1 |
| CCC(=O)c1cn(CC(=O)Nc2cccc(C)c2C)c2ccccc12 | < 0.4 |
| COC(=O)C1CCC(=S)N1C(=O)c1ccccc1 (stereo not given) | > 39.5 |
| COCCCn1c(-c2cccs2)nc2nc3ccccc3nc21 | 12.9 (≈ 39.8 µM) |
| O=C(O)CC1(CC(=O)NCc2ccc(C(F)(F)F)cc2)CCCCC1 | > 53.6 |
| CCN(CC)c1ccc(C(=O)OCc2c(C)noc2C)cc1 | 2.8 (≈ 9.26 µM) |
| CCc1cccc2c(C(=O)CN3C(=O)NC4(CCCCC4)C3=O)c[nH]c12 | 7 (≈ 19.8 µM) |
| Cc1ccc(Cn2c(N)nc3ccccc32)cc1 | 23.8 (≈ 100 µM) |
| COc1cccc2c1OCC(C(=O)Nc1nccs1)=C2 | 18.2 (≈ 63.1 µM) |
| Cc1ccsc1C(=O)OCC(=O)N(C)C1CCCCC1 | > 44.3 |
| COc1cccc(NC(=O)C2C(c3ccccc3)C2(Cl)Cl)c1 (stereo not given) | 7 (≈ 20.8 µM) |

| SMILES | solubility kinetic [µg/mL] |
| --- | --- |
| O=C(/C=C/c1cccs1)c1ccc([N+](=O)[O-])cc1 | 1.9 (≈ 7.33 µM) |
| Cc1ccc(NC2=C(Cl)C(=O)OC2OC(C)C)cc1 (stereo not given) | 34.8 (≈ 124 µM) |
| CCNC(=O)COc1ncnc2scc(-c3ccc(F)cc3)c12 | > 49.7 |
| C=CCNC(=O)/C(=C/c1cccc([N+](=O)[O-])c1)NC(=O)c1ccco1 | 43.3 (≈ 127 µM) |
| O=C(c1ccccc1F)N1CCOCC1 | > 31.4 |
| CCC(C)[C@H](NC(=O)NCc1ccc(Cl)cc1)C(=O)O (stereo not given in full) | > 44.8 |
| O=C(NC1CCCCCC1)C1CC(=O)N(c2ccc(Cl)cc2)C1 (stereo not given) | 6.3 (≈ 18.8 µM) |
| Cc1ccc(N2C(=O)C3C4C=CC(CC4)C3C2=O)cc1Cl (stereo not given) | 1.4 (≈ 4.64 µM) |
| CC(=O)Nc1ccc2nc(-c3cccn3C)[nH]c2c1 | 33.4 (≈ 131 µM) |
| Cc1cc(NC(=O)CSCC(=O)Nc2cc(C(F)(F)F)ccc2N2CCCCC2)no1 | 7.6 (≈ 16.6 µM) |
| CCn1ncc(-c2ccnc3cc(C(=O)O)nn23)c1C | > 40.7 |
| COc1cccc(C(=O)Oc2ccc(N3C(=O)CCC3=O)c(C)c2)c1 | > 50.9 |
| Cc1ccc(C(=O)OCC(=O)NC2CCCCC2)o1 | > 39.8 |
| CC(C)C(=O)Nc1ccc2c(c1)nc(CCN1CCCCC1)n2C | > 49.3 |
| CC(C)[C@H](NC(=O)c1ccccc1)C(=O)OCC(=O)NCc1ccc2c(c1)OCO2 | > 61.9 |
| Cc1ccc2ncnc(Nc3ccccc3)c2c1 | 11.6 (≈ 49.3 µM) |
| COc1ccc(C(CNc2ncnc3sccc23)N(C)C)cc1OC (stereo not given) | 35.5 (≈ 99 µM) |
| COc1cccc(N(C(C)=O)C2=NCCCS2)c1 | > 39.7 |
| CCOC(=O)C(=CNc1ccc(S(N)(=O)=O)cc1)C(=O)OCC | 37.8 (≈ 110 µM) |
| Cc1ccc(NC(=O)CCN2CCC(Cc3ccccc3)CC2)cc1 | 22.6 (≈ 67.2 µM) |
| Nc1ccc(Oc2ccc3c(c2)OCO3)cc1 | 27.3 (≈ 119 µM) |
| O=C(/C=C/c1ccccc1Cl)Nc1cccnc1 | 27 (≈ 104 µM) |

| SMILES | solubility kinetic [µg/mL] |
| --- | --- |
| Cc1ccccc1CSCC(=O)Nc1ccccc1Br | 4.5 (≈ 12.8 µM) |
| CCOC(=O)COc1cc([N+](=O)[O-])cc2cccnc12 | > 41.4 |
| CCCn1c(S(=O)(=O)O)nc2ccccc21 | > 36 |
| Cc1cc(C(=O)Nc2ccc3ccccc3c2)oc1C | 3.8 (≈ 14.3 µM) |
| S=C(NCCc1ccccc1)NCCc1cnc[nH]1 | > 41.2 |
| Cc1ccc(C(=O)Nc2ccc(C(=O)NCC3CCCO3)cc2)cc1 (stereo not given) | 3.5 (≈ 10.3 µM) |
| COc1cc(C(=O)CSc2nccn2C)cc(OC)c1OC | > 48.4 |
| CCOP(=O)(OCC)C(NC(=O)c1cccc(C)c1)C(Cl)(Cl)Cl (stereo not given) | 56.3 (≈ 140 µM) |
| CC(CCc1ccccc1)NC(=O)CN1CCc2ccccc2C1 (stereo not given) | 47.3 (≈ 147 µM) |
| O=C(Nc1cccc(NC(=O)c2cccs2)c1)c1ccc(F)cc1 | < 0.4 |
| O=C(Nc1ccsc1C(=O)O)c1ccccc1 | > 37.1 |
| COc1ccccc1Nc1c2c(nc3ccccc13)CCC2 | 37.4 (≈ 129 µM) |
| CCOc1ccc(S(=O)(=O)N(C)CC(=O)NCc2ccccn2)cc1 | 50.2 (≈ 138 µM) |
| Cc1cccc(S(=O)(=O)Nc2ccc3c(c2)OCCO3)c1 | 28.7 (≈ 94 µM) |
| CCc1cccc(C)c1NC(=O)COC(=O)CC1CCCC1 | 15.7 (≈ 51.7 µM) |
| O=C(NCCCN1CCCC1=O)Nc1cc(Cl)ccc1Cl | > 49.5 |
| Cc1ccc(SCCSc2ncccn2)cc1 | 1.7 (≈ 6.48 µM) |
| Nc1nc(Nc2ccccc2)nc(NCc2ccccc2)c1[N+](=O)[O-] | 0.2 (≈ 0.595 µM) |
| COc1ccc(C(=O)OCC(=O)c2c(N)n(C)c(=O)n(C)c2=O)c(OC)c1OC | > 61.1 |
| C=CCNC(=S)NC(=O)c1csc([N+](=O)[O-])c1 | 38.5 (≈ 142 µM) |
| Cc1cc(C)c2nc(N3CCOCC3)c(C#N)cc2c1 | 0.2 (≈ 0.748 µM) |
| O=C(Oc1cccc(Cl)c1)N1CCOCC1 | 34.8 (≈ 144 µM) |

| SMILES | solubility kinetic [µg/mL] |
| --- | --- |
| CSCC(C)N1CCC(CCC(=O)NC2CC2)CC1 (stereo not given) | > 42.7 |
| O=[N+]([O-])c1ccc(N(CC2CO2)S(=O)(=O)c2ccccc2)cc1 (stereo not given) | 41.9 (≈ 125 µM) |
| COc1cccc(C2(C)NC(=O)N(CC(=O)Nc3ccc(N4CCOCC4)cc3)C2=O)c1 (stereo not given) | 57.7 (≈ 132 µM) |
| COc1cccc(SCC2CSc3nc4ccccc4c(=O)n32)c1 (stereo not given) | > 53.5 |
| C=CCn1ccc(O)c(Cc2ccc(Cl)cc2)c1=O | 38.6 (≈ 140 µM) |
| CCc1ccc(C(=O)N2CCCN(C)CC2)s1 | > 37.9 |
| O=C(Nc1cccc(C(F)(F)F)c1)c1c(O)c2ccccc2[nH]c1=O | < 0.4 |
| COC(=O)C1C(O)=C(C(C)=Nc2cccc3ccccc23)C(=O)CC1(C)C (stereo not given) | 20.3 (≈ 55.6 µM) |
| CC(Oc1cccnc1[N+](=O)[O-])C(=O)N1CCc2ccccc21 (stereo not given) | > 47 |
| Cc1cccc(N2CC(C(=O)Nc3nccs3)CC2=O)c1C (stereo not given) | 42 (≈ 133 µM) |
| O=C(O)C1CCCCC1C(=O)Nc1ccc(OCc2ccccc2)cc1 (stereo not given) | 44.2 (≈ 125 µM) |
| C/C=C/C(=O)OCC(=O)Nc1cccc(F)c1 | > 35.6 |
| CN(CC(=O)NCCCN1CCOCC1)S(=O)(=O)c1ccc(Cl)cc1 | > 58.5 |
| COc1ccc(-n2c(O)c(C(C)=NCC3CCCO3)c(=O)[nH]c2=O)cc1 (stereo not given) | 51.5 (≈ 143 µM) |
| Cc1cc(=O)oc2cc(OCC(=O)NC3CCCCC3)ccc12 | 7.5 (≈ 23.8 µM) |
| Cc1ccc(CSCc2ccc(C(=O)NCC3CCCO3)o2)cc1 (stereo not given) | 39.4 (≈ 114 µM) |
| O=C(O)Cc1ccc(S(=O)(=O)Nc2ccccc2C(=O)O)cc1 | 43.4 (≈ 129 µM) |
| CCNC(=S)Nc1ccc(Cl)c([N+](=O)[O-])c1 | > 39 |
| Cc1nc2cc(NC(=O)Nc3ccccc3Cl)ccc2n1C | 7.4 (≈ 23.5 µM) |
